Article PMC10954736, “The evolutionary origin of naturally occurring intermolecular Diels-Alderases from Morus alba” (Nature Communications, 2024)
One block for each molecule: values may come before it.

Tests used:
[1] = molecular target: Morus alba Diels-Alderase MaDA1 (Morus alba); experiment: crystal structure; untagged MaDA1 at about 10 mg/mL, sitting drop vapor diffusion at 18 °C, 0.1 M Bis-Tris pH 5.5, 25% PEG3350
MaDA1 = molecular target: T1, MaDA1 (Morus alba, UniProt A0AAN0NNN7); experiment: UPLC product assay; assay type: biochemical; details: oxidative cyclisation to moracin D; 20 mM Tris-HCl pH 8.0, 50 °C
T1 construct: N-terminal 6xHis-SUMO tag, Sf9 baculovirus; tag removed by TEV protease for crystallisation; dimer in crystal
T1 sequence (A0AAN0NNN7 24-539 limits assumed): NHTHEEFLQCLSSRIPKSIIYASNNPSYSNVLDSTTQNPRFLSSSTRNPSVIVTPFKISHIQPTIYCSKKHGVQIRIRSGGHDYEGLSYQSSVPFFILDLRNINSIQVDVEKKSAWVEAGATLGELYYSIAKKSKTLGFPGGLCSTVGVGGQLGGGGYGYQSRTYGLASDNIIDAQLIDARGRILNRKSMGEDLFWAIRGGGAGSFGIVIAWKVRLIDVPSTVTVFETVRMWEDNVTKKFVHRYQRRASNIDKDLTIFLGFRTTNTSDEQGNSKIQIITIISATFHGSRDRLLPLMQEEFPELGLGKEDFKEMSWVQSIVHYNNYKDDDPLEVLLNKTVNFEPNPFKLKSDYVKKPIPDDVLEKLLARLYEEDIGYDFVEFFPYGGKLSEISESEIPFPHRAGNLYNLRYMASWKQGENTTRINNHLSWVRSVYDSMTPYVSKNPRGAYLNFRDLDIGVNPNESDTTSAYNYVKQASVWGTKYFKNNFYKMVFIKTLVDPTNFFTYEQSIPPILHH

ancDADS = molecular target: T2, ancDADS; experiment: Lineweaver-Burk, UPLC product quantification; assay type: biochemical; details: competitive against moracin C (20–150 μM); 20 mM Tris-HCl pH 8.0; compound is also an alternative substrate
T2 construct: N-terminal 6xHis-SUMO tag, Sf9 baculovirus

stoichiometry N [1]: 2
Molecule: Morus alba Diels-Alderase MaDA1 (enzyme)

Molecule: CC(C)=CCc1c(O)cc(-c2cc3ccc(O)cc3o2)cc1O [compound 1, moracin C]
UPLC product assay (MaDA1): two DAs (MaDA1 and MaDA4) and two DSs (MaDS1 and MaDS6) exhibit functional promiscuity

Ki (ancDADS): 7.34 µM
Molecule: CC(C)=CCc1c(O)ccc(C(=O)/C=C/c2ccc(O)cc2O)c1O [compound 4, morachalcone A]
